Laboratory results from patent publication US20040170714A1, “Bauhinia extracts” (priority 2001, published 2004).

Key:
[1] = tested on: N0-STZ rats; assay: Oral Glucose Tolerance Test (OGTT) in the N0-STZ rat model after 5 days of gavage; assay type: in vivo; conditions: Example 2a, 2 × 100 mg/kg daily for 5 days
Experimental: The N0-STZ rat model is described in Portha B., Picon L., Rosselin G., Diabetologia, 1979, 17, 371-377. The Oral Glucose Tolerance Test (OGTT) is described in Wilkerson: Diagnosis, oral glucose tolerance test: in Diabetes mellitus, Diagnosis & Treatment, p.31-34, NY, American Diabetes Association, 1964. During 5 days an appropriate dose of the extract is gavaged into the N0-STZ rats two times a day. Three hours after the last administration the Oral Glucose Tolerance Test (OGTT) is performed in awake rats by administering 2 g glucose/kg body weight. Blood samples are collected just before glucose administration (0 min) and after 30, 60 90, 120 and 180 minutes.
(§1) The N0-STZ rat model is used to evaluate the efficacy of the extract of example 1. During 5 days an appropriate dose of the drug (table 1) is gavaged into 8 N0-STZ rats two times a day. Three hours after the last administration the Oral Glucose Tolerance Test (OGTr) is performed in awake rats by administering 2 g glucose/kg body weight. Blood samples are collected just before glucose administration (0 min) and after 30, 60 90 and 120 minutes.
as §1, with “5)” for “1)”, “rats.” for “rats two times a day.”, “(OGTT)” for “(OGTr)”

[2] = tested on: N0-STZ rats; assay: Fasting plasma glucose concentration on day 5 in the N0-STZ rat model; assay type: in vivo; conditions: 2 × 100 mg/kg daily; day 5, after 2 hour fasting, before glucose; control −14
Experimental: The fasting plasma glucose concentration (table 4) is measured from blood samples obtained after a 2 hour fasting period on day 5 before the administration of glucose. In addition, preferred extracts of the invention in hand show a significant decrease of the fasting plasma glucose concentration versus initial basal glycemia. Preferred extracts show a decrease of the fasting plasma glucose concentration of at least 10%, more preferred of at least 28% versus initial basal glycemia.
The fasting plasma glucose concentration (table 4) is measured from blood samples obtained after a 2 hour fasting period on day 5 before the administration of glucose.

CN(C)C(=N)N=C(N)N [example 24, metformin]
OGTT area under curve: deviation from control (23) [1]: −18% | OGTT: Area under curve (Integration of the Plasma Glucose Level versus time, table 2) ([1]; 0-120 min): 26363 | Plasma Glucose Level ([1]; 30 min after 2 g glucose/kg): 245 mg/dL | Plasma Glucose Level ([1]; 60 min after 2 g glucose/kg): 242 mg/dL | Plasma Glucose Level ([1]; 90 min after 2 g glucose/kg): 223 mg/dL | Plasma Glucose Level ([1]; 120 min after 2 g glucose/kg): 207 mg/dL | Plasma Glucose Level ([1]; time −0 min (just before 2 g glucose/kg)): 143 mg/dL | Effect on fasting Plasma Glucose Concentration in % of variation versus initial basal glycemia [2]: −31%
